According to publication PMC11224111, “Optimizing the pharmacokinetics of an ^211At-labeled RGD peptide with an albumin-binding moiety via the administration of an albumin-binding inhibitor” (European Journal of Nuclear Medicine and Molecular Imaging, 2024):
Values joined by “and” are separate entries in the source; they are usually repeats but may differ in a detail not shown here. Equal entries are not always repeated.

Legend:
[1] = test system: U-87 MG tumor-bearing mice; parameters: method as in PMID 37819452; conditions: 370 and 925 kBq without IPBA; cited from earlier work
[2] = test system: U-87 MG tumor-bearing mice; test: Therapeutic experiments in U-87 MG tumor-bearing mice; type: in vivo; conditions: for Relative body weight / Relative tumor volume: 1.85 MBq with IPBA; for Relative body weight: relative to initial body weight; for Relative tumor volume: relative to initial tumor volume
Method: (§1) To prepare tumor-bearing mice, 5 × 10^6 of U-87 MG cells were subcutaneously inoculated into the right shoulder of 4-week-old female BALB/c nude mice (13–15 g, Japan SLC, Inc.) as previously reported. At approximately 10-day postinoculation of U-87 MG cells, they were used for each experiment after tumor size reached 0.3–0.5 cm^3.
U-87 MG tumor-bearing mice were divided into three groups, [^211At]1 (1.85 MBq) (n = 6) injected group, only […] (1.85 MBq) and IPBA (n = 6) injected group, and vehicle and IPBA (n = 3) injected group as a control group. In IPBA injected group, it was administered at 10 molar equivalent of blood albumin at 1-h postinjection of [^211At]1 or vehicle. Tumor volume and body weight of mice were monitored 5 or 6 times weekly. Tumor size was measured with a slide caliper, and tumor volume was calculated using a formula: volume = 4/3 π (1/2 length × 1/2 width × 1/2 height). Tumor volume and body weight compared to the values on the day of treatment (relative tumor volume). The mice were euthanized humanely when body weight was less than 80% at baseline (day 0) or when the tumor weight reached more than 10% of body weight as the endpoint.

[3] = test system: U-87 MG tumor-bearing mice; test: Biodistribution in U-87 MG tumor-bearing mice with IPBA; type: in vivo; conditions: IPBA 10 eq at 1 h postinjection
Method: as §1
At 1-h postinjection of [^211At]1 (37 kBq) and [^125I]2 (37 kBq), IPBA (1.9 mg, 6.1 µmol) was administered at 10 molar equivalent of blood albumin. Mice were sacrificed at 65-, 70-min, 2-, 4-, 12-, and 24-h postinjection of [^211At]1 and [^125I]2. Tissues of interest were removed and weighed, and radioactivity counts of ^125I and ^211At were determined with an auto well gamma counter (ARC-7010; Hitachi Medical, Ltd., Tokyo, Japan) and corrected for background radiation. To determine the radioactivity excreted from the body for 24 h, mice were housed in metabolic cages (Metabolica, Sugiyama-Gen Co., Ltd., Tokyo, Japan).

Ga-DOTA-K([^211At]APBA)-c(RGDfK) [[^211At]1]
Weight loss and death [1]: a little weight loss, but no mice died
Body weight loss ([2]; 1.85 MBq followed by IPBA, temporary, recovered): less than 10%
Tumor growth ([2]; 1.85 MBq followed by IPBA, vs control group): significantly more inhibited than it was in the control group
Relative body weight ([2]; day 0 after injection): 1.00 (0.00)
Relative tumor volume ([2]; day 0 after injection): 1.00 (0.00)
Relative body weight ([2]; day 1 after injection): 0.99 (0.02)
Relative tumor volume ([2]; day 1 after injection): 1.14 (0.11)
Relative body weight ([2]; day 2 after injection): 0.99 (0.01)
Relative tumor volume ([2]; day 2 after injection): 1.19 (0.09)
Relative body weight ([2]; day 3 after injection): 0.97 (0.03)
Relative tumor volume ([2]; day 3 after injection): 1.23 (0.15)
Relative body weight ([2]; day 4 after injection): 0.96 (0.02)
Relative tumor volume ([2]; day 4 after injection): 1.21 (0.18)
Relative body weight ([2]; day 6 after injection): 0.93 (0.04)
Relative tumor volume ([2]; day 6 after injection): 1.24 (0.17)
Relative body weight ([2]; day 7 after injection): 0.94 (0.03)
Relative tumor volume ([2]; day 7 after injection): 1.25 (0.19)
Time within which all mice died ([2]; 1.85 MBq without IPBA): ≤ 9 days
Radioactivity, Blood ([3]; 65 min after administration): 13.96 (0.18) % injected activity per gram
Radioactivity, Bone ([3]; 65 min after administration): 4.07 (0.26) % injected activity per gram
Radioactivity, Brain ([3]; 65 min after administration): 0.36 (0.00) % injected activity per gram
Radioactivity, Heart ([3]; 65 min after administration): 5.28 (0.29) % injected activity per gram
Radioactivity, Kidney ([3]; 65 min after administration): 16.15 (1.45) % injected activity per gram
Radioactivity, L. intestine ([3]; 65 min after administration): 3.05 (0.10) % injected activity per gram
Radioactivity, Liver ([3]; 65 min after administration): 5.20 (0.50) % injected activity per gram
Radioactivity, Lung ([3]; 65 min after administration): 10.81 (0.60) % injected activity per gram
Radioactivity, Muscle ([3]; 65 min after administration): 2.80 (0.39) % injected activity per gram
Radioactivity, Neck ([3]; 65 min after administration): 0.04 (0.02) % injected activity
Radioactivity, Pancreas ([3]; 65 min after administration): 2.82 (0.16) % injected activity per gram
Radioactivity, S. intestine ([3]; 65 min after administration): 4.69 (0.26) % injected activity per gram
Radioactivity, Spleen ([3]; 65 min after administration): 4.06 (0.21) % injected activity per gram
Radioactivity, Stomach ([3]; 65 min after administration): 1.12 (0.28) % injected activity
Radioactivity, Tumor ([3]; 65 min after administration): 10.92 (0.34) % injected activity per gram
Radioactivity, Blood ([3]; 70 min after administration): 9.85 (0.55) % injected activity per gram
Radioactivity, Bone ([3]; 70 min after administration): 2.22 (0.60) % injected activity per gram
Radioactivity, Brain ([3]; 70 min after administration): 0.26 (0.02) % injected activity per gram
Radioactivity, Heart ([3]; 70 min after administration): 3.66 (0.27) % injected activity per gram
Radioactivity, Kidney ([3]; 70 min after administration): 11.02 (1.44) % injected activity per gram
Radioactivity, L. intestine ([3]; 70 min after administration): 2.25 (0.27) % injected activity per gram
Radioactivity, Liver ([3]; 70 min after administration): 3.72 (0.52) % injected activity per gram
Radioactivity, Lung ([3]; 70 min after administration): 7.40 (0.85) % injected activity per gram
Radioactivity, Muscle ([3]; 70 min after administration): 1.60 (0.16) % injected activity per gram
Radioactivity, Neck ([3]; 70 min after administration): 0.05 (0.00) % injected activity
Radioactivity, Pancreas ([3]; 70 min after administration): 1.95 (0.14) % injected activity per gram
Radioactivity, S. intestine ([3]; 70 min after administration): 3.61 (0.36) % injected activity per gram
Radioactivity, Spleen ([3]; 70 min after administration): 2.77 (0.39) % injected activity per gram
Radioactivity, Stomach ([3]; 70 min after administration): 0.78 (0.17) % injected activity
Radioactivity, Tumor ([3]; 70 min after administration): 10.79 (1.09) % injected activity per gram
Radioactivity, Blood ([3]; 2 h after administration): 8.06 (0.39) % injected activity per gram
Radioactivity, Bone ([3]; 2 h after administration): 3.04 (0.30) % injected activity per gram
Radioactivity, Heart ([3]; 2 h after administration): 2.86 (0.31) % injected activity per gram
Radioactivity, Kidney ([3]; 2 h after administration): 8.22 (0.51) % injected activity per gram
Radioactivity, L. intestine ([3]; 2 h after administration): 2.35 (0.97) % injected activity per gram
Radioactivity, Liver ([3]; 2 h after administration): 2.45 (0.21) % injected activity per gram
Radioactivity, Lung ([3]; 2 h after administration): 5.67 (0.59) % injected activity per gram
Radioactivity, Muscle ([3]; 2 h after administration): 1.96 (0.68) % injected activity per gram
Radioactivity, Neck ([3]; 2 h after administration): 0.04 (0.02) % injected activity
Radioactivity, Pancreas ([3]; 2 h after administration): 1.64 (0.14) % injected activity per gram
Radioactivity, S. intestine ([3]; 2 h after administration): 2.42 (0.70) % injected activity per gram
Radioactivity, Spleen ([3]; 2 h after administration): 2.34 (0.18) % injected activity per gram
Radioactivity, Stomach ([3]; 2 h after administration): 0.81 (0.05) % injected activity
Radioactivity, Tumor ([3]; 2 h after administration): 13.38 (1.48) % injected activity per gram
Radioactivity, Blood ([3]; 4 h after administration): 3.04 (0.26) % injected activity per gram
Radioactivity, Bone ([3]; 4 h after administration): 1.60 (0.14) % injected activity per gram
Radioactivity, Brain ([3]; 4 h after administration): 0.18 (0.02) % injected activity per gram
Radioactivity, Heart ([3]; 4 h after administration): 1.44 (0.10) % injected activity per gram
Radioactivity, Kidney ([3]; 4 h after administration): 5.32 (0.35) % injected activity per gram
Radioactivity, L. intestine ([3]; 4 h after administration): 4.03 (1.33) % injected activity per gram
Radioactivity, Liver ([3]; 4 h after administration): 1.34 (0.05) % injected activity per gram
Radioactivity, Lung ([3]; 4 h after administration): 3.34 (0.11) % injected activity per gram
Radioactivity, Muscle ([3]; 4 h after administration): 0.61 (0.01) % injected activity per gram
Radioactivity, Neck ([3]; 4 h after administration): 0.02 (0.00) % injected activity
Radioactivity, Pancreas ([3]; 4 h after administration): 0.93 (0.26) % injected activity per gram
Radioactivity, S. intestine ([3]; 4 h after administration): 3.03 (0.65) % injected activity per gram
Radioactivity, Spleen ([3]; 4 h after administration): 2.18 (0.13) % injected activity per gram
Radioactivity, Stomach ([3]; 4 h after administration): 0.75 (0.01) % injected activity
Radioactivity, Tumor ([3]; 4 h after administration): 12.48 (0.95) % injected activity per gram
Radioactivity, Blood ([3]; 12 h after administration): 2.71 (0.21) % injected activity per gram
Radioactivity, Bone ([3]; 12 h after administration): 1.10 (0.24) % injected activity per gram
Radioactivity, Brain ([3]; 12 h after administration): 0.12 (0.01) % injected activity per gram
Radioactivity, Heart ([3]; 12 h after administration): 1.49 (0.11) % injected activity per gram
Radioactivity, Kidney ([3]; 12 h after administration): 3.12 (0.14) % injected activity per gram
Radioactivity, L. intestine ([3]; 12 h after administration): 0.89 (0.06) % injected activity per gram
Radioactivity, Liver ([3]; 12 h after administration): 1.04 (0.12) % injected activity per gram
Radioactivity, Lung ([3]; 12 h after administration): 3.50 (0.28) % injected activity per gram
Radioactivity, Muscle ([3]; 12 h after administration): 0.54 (0.02) % injected activity per gram
Radioactivity, Neck ([3]; 12 h after administration): 0.09 (0.03) % injected activity
Radioactivity, Pancreas ([3]; 12 h after administration): 0.92 (0.08) % injected activity per gram
Radioactivity, S. intestine ([3]; 12 h after administration): 1.01 (0.14) % injected activity per gram
Radioactivity, Spleen ([3]; 12 h after administration): 1.41 (0.12) % injected activity per gram
Radioactivity, Stomach ([3]; 12 h after administration): 0.72 (0.09) % injected activity
Radioactivity, Tumor ([3]; 12 h after administration): 7.73 (0.76) % injected activity per gram
Radioactivity, Blood ([3]; 24 h after administration): 2.21 (0.38) % injected activity per gram
Radioactivity, Bone ([3]; 24 h after administration): 0.64 (0.16) % injected activity per gram
Radioactivity, Brain ([3]; 24 h after administration): 0.26 (0.31) % injected activity per gram
Radioactivity, Heart ([3]; 24 h after administration): 0.90 (0.31) % injected activity per gram
Radioactivity, Kidney ([3]; 24 h after administration): 1.91 (0.38) % injected activity per gram
Radioactivity, L. intestine ([3]; 24 h after administration): 0.41 (0.24) % injected activity per gram
Radioactivity, Liver ([3]; 24 h after administration): 0.73 (0.17) % injected activity per gram
Radioactivity, Lung ([3]; 24 h after administration): 2.31 (0.34) % injected activity per gram
Radioactivity, Muscle ([3]; 24 h after administration): 0.32 (0.07) % injected activity per gram
Radioactivity, Neck ([3]; 24 h after administration): 0.04 (0.01) % injected activity
Radioactivity, Pancreas ([3]; 24 h after administration): 0.41 (0.12) % injected activity per gram
Radioactivity, S. intestine ([3]; 24 h after administration): 0.46 (0.22) % injected activity per gram
Radioactivity, Spleen ([3]; 24 h after administration): 1.22 (0.27) % injected activity per gram
Radioactivity, Stomach ([3]; 24 h after administration): 0.61 (0.18) % injected activity
Radioactivity, Tumor ([3]; 24 h after administration): 6.15 ± 0.20 % injected activity per gram and 6.15 (0.20) % injected activity per gram
Radioactivity excreted, Feces ([3]; until 24 h postinjection): 4.09 ± 1.69 % injected activity and 4.09 (1.69) % injected activity
Radioactivity excreted, Urine ([3]; until 24 h postinjection): 38.98 ± 5.39 % injected activity and 38.98 (5.39) % injected activity
